# Source: patent US20040091853A1 (priority 2003, published 2004)
# Where two headings read alike, the source gives them in different places.
# What was measured:
# [1] = system: pNL4-3-derived HIV reporter particles; assay type: cell-based
# [2] = system: pNL4-3-derived HIV reporter particles; assay type: cell-based; settings: particles made in presence of 1 μM inhibitor; supernatants tested on target cells
# [3] = system: VSV-G-enveloped particles; assay type: cell-based, HIV
Compound,effect on ability of HIV reporter particle to transfer β-lactamase to target cells [1],percentage of blue cells [1],percentage of blue cells [2],blocking of transfer of β-lactamase [1],blue cells in presence versus absence of NH4Cl [3],percentage of blue cells [3],blocking of transfer of β-lactamase to target cells [1],blocking of transfer of β-lactamase to target cells [3]
CCc1cc(NCc2nc3c(Cl)ccc(Cl)c3o2)c(O)nc1C [L-697661],had no effect,10-20% blue cells,˜10-20% blue cells,,,,,
Cl.N [NH4Cl],,˜10% blue cells,,did not block transfer of β-lactamase,significantly fewer blue cells,˜10% blue cells,,
enfuvirtide,,,,,,,blocked the transfer of β-lactamase to target cells,neither agent blocked transfer of β-lactamase
